# Experiments:
# [1] = tested on: Cryptococcus yeast (CHY3833 and CHY3836); experiment: Yeast replication secondary screen (OD600); format: cell-based, Cryptococcus neoformans serotype D (deneoformans); conditions: 10 μM, 12 h at 30°C
# Protocol: (ii) Yeast replication. CHY3833 and CHY3836 were each grown in YPD liquid overnight at 30°C to saturation and then resuspended in 0.5× YPD at an OD600 of 0.005. Strains were aliquoted into 384-well plates with inhibitors and grown for 12 h at 30°C at […] before OD600 readings were taken. Compounds that caused a >10% decrease in growth were considered yeast growth inhibitors.
# [2] = tested on: normal human dermal fibroblasts (NHDF) cells; experiment: Fibroblast cytotoxicity (CellTiter-Glo); format: cell-based; conditions: 10 µM
# Outline: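 Normal human dermal fibroblasts, 1 × 10^3 per well, exposed to compounds at 10 μM for 72 h at 37°C. Viability read as ATP-dependent CellTiter-Glo luminescence. Dose-response runs titrated compounds from 80 μM to 0.5 μM in duplicate.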
SMILES,Yeast Inhibition: % Inhibition [1] [%],Cytotoxicity: Relative Cell Viability (% of Negative Control) [2]
O=C(COC(=O)c1ccc(C2Nc3ccccc3S(=O)(=O)N2)cc1)Nc1cc(F)ccc1F (stereo not shown) [compound 44117394],9.7,105.4 % of Negative Control
Cl.Cl.OC(COc1cccc2ccccc12)CN1CCN(c2ccc(F)cc2)CC1 (stereo not shown) [compound 45283772],44.0,96.8 % of Negative Control
COc1ccc(CCNC(=O)c2cnn3c(-c4ccc(C)c(C)c4)ccnc23)cc1OC [compound 46074589],-4.7,105.7 % of Negative Control
Cc1ccc(Nc2ccc(N3CCN(C(=O)Cc4ccc(F)cc4)CC3)nn2)cc1 [compound 49671361],-10.5,102.4 % of Negative Control
Cc1noc(C)c1C(=O)N1CCN(c2ccc(-c3noc(C(C)C)n3)cn2)CC1 [compound 49701731],1.4,102.2 % of Negative Control
Cc1cccc(CC(=O)Nc2cc(C)ns2)c1 [compound 49722107],32.6,98.5 % of Negative Control
COc1ccc2nc(N3CCCC(C(=O)O)C3)sc2c1 (stereo not shown) [compound 53212169],-17.8,105.4 % of Negative Control
CC(C)c1nc(-c2ccc(N3CCN(C(=O)Cc4cn(C)c5ccccc45)CC3)nc2)no1 [compound 71780502],-2.9,91.8 % of Negative Control
Cc1cc(C(=O)N(CCc2cccs2)C2CC2)c(C)o1 [compound 71781394],95.6,103.1 % of Negative Control
CN(C)CCN(C(=O)c1c[nH]c2ccccc12)c1nc2ccc(OC(F)(F)F)cc2s1.Cl [compound 71782913],99.5,66.6 % of Negative Control
O=C(c1cc(-c2ccco2)on1)N1CCC(c2cccs2)CC1 [compound 71786870],39.7,90.1 % of Negative Control
O=C(CSCc1ccccc1)N1CCC(c2cccs2)CC1 [compound 71786876],12.2,97.1 % of Negative Control
O=C(CCSc1ccccc1)N1CCC(c2cccs2)CC1 [compound 71786877],10.0,89.8 % of Negative Control
O=C(CSCc1ccccc1)N1CCC(c2ccsc2)CC1 [compound 71786985],11.0,101.7 % of Negative Control
O=C(CSc1ccc(F)cc1)N1CCC(c2ccsc2)CC1 [compound 71786989],16.0,102.2 % of Negative Control
O=C(Cc1cccc2ccccc12)N1CCC(c2ccsc2)CC1 [compound 71786990],8.3,94.3 % of Negative Control
Cc1cc(C(=O)NCCC(O)c2cccc3ccccc23)c(C)o1 (stereo not shown) [compound 71787916],28.8,101.1 % of Negative Control
O=C(Nc1nc2c(s1)CN(C(=O)C1(c3cccs3)CCCC1)CC2)c1ccoc1 [compound 71788301],8.3,91.4 % of Negative Control
COc1cc(NS(=O)(=O)c2cccc(C(F)(F)F)c2)ncn1 [compound 71795763],-14.5,90.4 % of Negative Control
Cc1cccc2sc(OC3CN(C(=O)Cc4ccc(F)cc4)C3)nc12 [compound 71796286],3.1,99.2 % of Negative Control
Cc1cc(C(=O)NCCc2nc(C3CC3)cc(C(F)(F)F)n2)c(C)o1 [compound 71797038],47.0,94.6 % of Negative Control
O=C(NCCc1nc2c(c(C(F)(F)F)n1)CCCC2)c1ccc(F)cc1Cl [compound 71797126],20.3,106.4 % of Negative Control

SMILES,Yeast Inhibition: % Inhibition [1] [%],Cytotoxicity: Relative Cell Viability (% of Negative Control) [2]
Cc1cc(C(=O)N2CCC(Oc3ncccc3Cl)CC2)c(C)o1 [compound 71798856],54.8,93.6 % of Negative Control
O=C(COc1ccccc1F)N1CCC(Oc2ncccc2Br)CC1 [compound 71799471],2.6,101.4 % of Negative Control
O=C(Nc1cnc(Oc2ccccc2)nc1)c1cccc(Cl)c1 [compound 71799766],7.9,99.9 % of Negative Control
O=C1CC(c2cccs2)CC(=O)N1Cc1csc(-c2ccccc2)n1 [compound 71801965],3.9,95.9 % of Negative Control
Cc1cc(C)n(-c2nc(CCNC(=O)c3cc(C)oc3C)cs2)n1 [compound 71802096],42.7,103.6 % of Negative Control
Cc1cc(C(=O)NCC#CCOc2cccc(C(F)(F)F)c2)c(C)o1 [compound 71803023],44.0,90.7 % of Negative Control
O=S(=O)(NCC#CCOc1cccc(C(F)(F)F)c1)c1cccs1 [compound 71803055],7.0,63.8 % of Negative Control
O=C(c1ccc(OC(F)(F)F)cc1)N(Cc1ccoc1)Cc1cccs1 [compound 71804107],7.9,94.0 % of Negative Control
O=C(CCc1ccccc1Br)N1CCC(c2cccs2)CC1 [compound 71807060],5.9,100.7 % of Negative Control
O=C(CCc1ccccc1Br)N1CCC(c2ccsc2)CC1 [compound 71807075],9.6,93.1 % of Negative Control
O=C(Cc1ccc(F)cc1)N1CCN(c2nc(-c3ccsc3)cs2)CC1 [compound 71811049],4.0,99.2 % of Negative Control
Cc1cc(C(=O)NCCn2nc(C(F)(F)F)c3c2CCCC3)c(C)o1 [compound 72718563],79.7,92.0 % of Negative Control
Cl.Fc1ccc(Nc2nc(-c3ccoc3)cs2)cc1F [compound 72720194],29.6,70.6 % of Negative Control
O=C(NC1CCN(c2nccs2)C1)c1nc2ccccc2s1 (stereo not shown) [compound 76149097],10.4,94.5 % of Negative Control
O=C(C1CCC1)N1CCCCC(c2ccc(Cl)cc2)C1 (stereo not shown) [compound 76150259],-2.1,108.6 % of Negative Control
O=C(c1ccc2cc[nH]c2c1)N1CCCCC(c2ccc(Cl)cc2)C1 (stereo not shown) [compound 76150266],-14.0,92.9 % of Negative Control
O=C(c1ccc2nsnc2c1)N1CCSC(c2ccccc2Cl)CC1 (stereo not shown) [compound 76151751],14.7,97.8 % of Negative Control
O=C(c1cc2ccccc2s1)N1CCC(c2ccsc2)CC1 [compound 91624614],-0.5,96.6 % of Negative Control
Cc1cc(C(=O)NCC2Cc3ccccc3CO2)c(C)o1 (stereo not shown) [compound 91626508],53.9,98.3 % of Negative Control
CCCCc1nnc(NC(=O)c2cc(OC)ncn2)s1 [compound 91628556],83.1,88.7 % of Negative Control
Cc1cc(C(=O)NCCc2nc3c(c(C(F)(F)F)n2)COCC3)c(C)o1 [compound 91629266],31.5,103.1 % of Negative Control
O=C(NCc1ccnc(-c2cccs2)c1)c1nc2ccccc2s1 [compound 91630328],3.0,93.3 % of Negative Control
